Laboratory results reported in patent publication US20140296064A1, “PESTICIDAL METHODS USING SUBSTITUTED 3-PYRIDYL THIAZOLE COMPOUNDS AND DERIVATIVES FOR COMBATING ANIMAL PESTS I” (BASF SE, priority 2011, published 2014).

Assays:
Assay type in all cases: in vivo
[1] = test system: Green Peach Aphid (Myzus persicae); assay: Green peach aphid artificial diet test (systemic); settings: 72 h, in aphid diet under artificial membrane, assessed after 3 days, read-out: mortality in comparison with untreated controls
Description: B.2 Green Peach Aphid (Myzus persicae)
For evaluating control of green peach aphid (Myzus persicae) through systemic means the test unit consisted of 96-well-microtiter plates containing liquid artificial diet under an artificial membrane.
The compounds were formulated using a solution containing 75% v/v water and 25% v/v DMSO. Different concentrations of formulated compounds were pipetted into the aphid diet, using a custom built pipetter, at two replications. After application, 5-8 adult aphids were placed on the artificial membrane inside the microtiter plate wells. The aphids were then allowed to suck on the treated aphid diet and were incubated at about 23±1° C. and about 50±5% relative humidity for 3 days. Aphid mortality and fecundity was then visually assessed.

[2] = test system: Silverleaf Whitefly (bemisia argentifolii); assay: Silverleaf whitefly cotton plant spray test; settings: 72 h, cotton plants sprayed, whitefly adults, assessed 3 days after treatment, read-out: mortality in comparison with untreated controls
Description: B.5 Silverleaf Whitefly (bemisia argentifolii)
The active compounds were formulated in cyclohexanone as a 10,000 ppm solution supplied in tubes. The tubes were inserted into an automated electrostatic sprayer equipped with an atomizing nozzle and they serve as stock solutions for which lower dilutions are made in 50% acetone: 50% water (v/v). A nonionic surfactant (Kinetic®) was included in the solution at a volume of 0.01% (v/v).
Cotton plants at the cotyledon stage (one plant per pot) were sprayed by an automated electrostatic plant sprayer equipped with an atomizing spray nozzle. The plants were dried in the sprayer fume hood and then removed from the sprayer. Each pot was placed into a plastic cup and about 10 to 12 whitefly adults (approximately 3-5 days old) were introduced. The insects were collected using an aspirator and a nontoxic Tygon® tubing connected to a barrier pipette tip. The tip, containing the collected insects, were then gently inserted into the soil containing the treated plant, allowing insects to crawl out of the tip to reach the foliage for feeding. Cups were covered with a reusable screened lid. Test plants were maintained in a growth room at about 25° C. and about 20-40% relative humidity for 3 days, avoiding direct exposure to fluorescent light (24 hour photoperiod) to prevent trapping of heat inside the cup. Mortality was assessed 3 days after treatment, compared to untreated control plants.

[3] = test system: Cowpea Aphid (Aphis craccivora); assay: Cowpea aphid potted plant spray test; settings: potted cowpea plants sprayed, population reduction assessed after 24, 72 and 120 hours, read-out: mortality in comparison with untreated controls
Method: B.4 Cowpea Aphid (Aphis craccivora)
The active compound was dissolved at the desired concentration in a mixture of 1:1 (vol:vol) distilled water: acetone. The test solution was prepared at the day of use.
Potted cowpea plants colonized with approximately 100-150 aphids of various stages were sprayed after the pest population had been recorded. Population reduction was assessed after 24, 72, and 120 hours.

[4] = test system: Vetch aphid (Megoura viciae); assay: Vetch aphid leaf disk spray test (contact or systemic); settings: foliar, 120 h, sprayed broad bean leaf disks, assessed after 5 days, read-out: mortality in comparison with untreated controls
Method: B.1 Vetch aphid (Megoura viciae)
For evaluating control of vetch aphid (Megoura viciae) through contact or systemic means the test unit consisted of 24-well-microtiter plates containing broad bean leaf disks.
The compounds were formulated using a solution containing 75% v/v water and 25% v/v DMSO. Different concentrations of formulated compounds were sprayed onto the leaf disks at 2.5 μl, using a custom built micro atomizer, at two replications. After application, the leaf disks were air-dried and 5-8 adult aphids were placed on the leaf disks inside the microtiter plate wells. The aphids were then allowed to suck on the treated leaf disks and were incubated at about 23±1° C. and about 50±5% relative humidity for 5 days. Aphid mortality and fecundity were then visually assessed.

[5] = test system: Cotton aphid (Aphis gossypi); assay: Cotton aphid cotyledon dip test; settings: 120 h, cotton cotyledons dipped, mortality counts after 5 days, read-out: mortality in comparison with untreated controls
Description: B.3 Cotton aphid (Aphis gossypi)
The active compounds were formulated in 50:50 (vol:vol) acetone: water and 100 ppm Kinetica™ surfactant.
Cotton plants at the cotyledon stage (one plant per pot) were infested by placing a heavily infested leaf from the main colony on top of each cotyledon. The aphids were allowed to transfer to the host plant overnight, and the leaf used to transfer the aphids was removed. The cotyledons were dipped in the test solution and allowed to dry. After 5 days, mortality counts were made.

Row | SMILES | mortality at 500 ppm [1] | mortality at 500 ppm [2] | mortality at 500 ppm [3] | mortality at 800 ppm [4] | mortality at 500 ppm [5]
1 | CN(C)C(=O)c1sc(-c2cccnc2)nc1C(F)(F)F [C.1, 2-Pyridin-3-yl-4-trifluoromethyl-thiazole-5-carboxylic acid dimethylamide] | ≥ 75% | ≥ 75% | ≥ 75% |  | 
2 | CSCCNC(=O)c1sc(-c2cccnc2)nc1C(F)(F)F [C.2, 2-Pyridin-3-yl-4-trifluoromethyl-thiazole-5-carboxylic acid (2-methylsulfanyl-ethyl)amide] | ≥ 75% |  | ≥ 75% | ≥ 75% | 
3 | CCN(CCSC)C(=O)c1sc(-c2cccnc2)nc1C(F)(F)F [C.3, 2-Pyridin-3-yl-4-trifluoromethyl-thiazole-5-carboxylic acid ethyl-(2-methylsulfanyl-ethyl)-amide] |  |  | ≥ 75% |  | ≥ 75%
4 | CCN(CC[S+](C)[O-])C(=O)c1sc(-c2cccnc2)nc1C(F)(F)F (centres unmarked) [C.4, 2-Pyridin-3-yl-4-trifluoromethyl-thiazole-5-carboxylic acid ethyl-(2-methanesulfinyl-ethyl)-amide] |  | ≥ 75% | ≥ 75% |  | 
5 | CCN(CCS(C)(=O)=O)C(=O)c1sc(-c2cccnc2)nc1C(F)(F)F [C.5, 2-Pyridin-3-yl-4-trifluoromethyl-thiazole-5-carboxylic acid ethyl-(2-methanesulfonyl-ethyl)-amide] |  |  | ≥ 75% |  | 
6 | O=C(NC1CSC1)c1sc(-c2cccnc2)nc1C(F)(F)F [C.6, 2-Pyridin-3-yl-4-trifluoromethyl-thiazole-5-carboxylic acid thietan-3-ylamide] |  |  |  | ≥ 75% | 
7 | CCN(C(=O)c1sc(-c2cccnc2)nc1C(F)(F)F)C1CSC1 [C.7, 2-Pyridin-3-yl-4-trifluoromethyl-thiazole-5-carboxylic acid ethyl-thietan-3-yl-amide] |  | ≥ 75% | ≥ 75% |  | 
8 | CCN(C(=O)c1sc(-c2cccnc2)nc1C(F)(F)F)C1C[S+]([O-])C1 (centres unmarked) [C.8, 2-Pyridin-3-yl-4-trifluoromethyl-thiazole-5-carboxylic acid ethyl-(1-oxo-1lambda*4*-thietan-3-yl)-amide] |  | ≥ 75% |  |  | 
9 | CN(C)C(=O)c1sc(-c2cccnc2)nc1Cl [C.11, 4-Chloro-N, N-dimethyl-2-(3-pyridyl)thiazole-5-carboxamide] | ≥ 75% | ≥ 75% | ≥ 75% | ≥ 75% | ≥ 75%
